Consider one compound from patent publication US20040204577A1, “Novel peptide-forming enzyme gene” (Ajinomoto Co., Inc., priority 2003, published 2004).

The subject of this test is enzyme derived from Sphingobacterium sp. strain FERM BP-8124 (SP-Sepharose HP fraction enzyme). Description: Enzyme substrate specificity (11), (12): peptide production. Conditions: amides and methylamine; carboxy component 100 mM, amine component 150 mM, 0.33 units enzyme, pH 9.0, 25° C., 1.5 hours. The test is classed as biochemical. In short, it runs like this:
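Peptide and oligopeptide formation catalysed by SP-Sepharose HP-fraction enzyme from Sphingobacterium sp. FERM BP-8124; carboxy components used as hydrochloride salts, 0.1% Tween-80 final added with L-Tyr-OMe. Products quantified; "+" denotes detected but unquantified (no standard), "tr" trace.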

Each structure is given as a SMILES string. Where a SMILES comes first, the peptide text is derived from it.

For `C[C@H](N)C(=O)N[C@@H](CCC(N)=O)C(=O)O` [L-Ala-L-Gln, L-alanyl-L-glutamine] (H-Ala-Gln-OH), the “Produced peptide (Table 15-4)” value turned out to be 0.3 mM.
